Results on ten compounds are retold here after US20240327425A1, “KRAS G12D INHIBITOR AND USE THEREOF” (SHANGHAI DE NOVO PHARMATECH CO., LTD., priority 2021, published 2024).

The target in test [1] is Human KRAS G12D His-tagged protein (Homo sapiens (Human), UniProt P01116, G12D). The test is described as follows: KRAS G12D binding assay (TR-FRET). To be noted: GDP 20 nM, GTP-Red. On the procedure: The binding ability of the compound to KRAS G12D protein was detected by TR-FRET method, and the inhibitory activity of the compound on KRAS G12D protein was evaluated. Human KRAS G12D His-tagged (Cisbio, 63ADK000CB27PEG) protein was 100-fold diluted with PPI Eu detection buffer (Cisbio, 61DB9RBF), then 5 μL of which was added to a 384-well plate and centrifuged at 2000 rpm for 40 seconds. A 10 mM concentrated stock solution of the test compound was prepared with dimethyl sulfoxide, 3-fold serially diluted, then diluted to make a working solution (0.5% DMSO) with PPI Eu detection buffer, added to a 384-well plate at 5 μL/well, with the control group added with 0.5% dimethyl sulfoxide and the highest concentration of the test compound at 10 μM, and centrifuged at 2000 rpm for 40 seconds. An 80 nM GDP standard working solution (Cisbio, 63ADK000CB27PEG) was prepared with PPI Eu detection buffer and added to a 384-well plate at 5 μL/well, with the final concentration of GDP standard working solution at 20 nM. The plate was centrifuged at 2000 rpm for 40 seconds and reacted at room temperature for 30 minutes. 1×6His Eu cryptate antibody and GTP-Red reagent (Cisbio, 63ADK000CB27PEG) were prepared with PPI Eu detection buffer, mixed in a volume ratio of 1:1, 5 μL of which was then added to a 384-well plate, centrifuged at 2000 rpm for 40 seconds, and incubated at room temperature for 30 minutes. The fluorescence intensity at 620 nm and 665 nm was detected by a microplate reader, and the inhibitory activity of the compound on KRAS G12D protein was obtained by fitting a four-parameter equation.
Sequence of Human KRAS G12D His-tagged protein (P01116-2 other isoform, or with tags, fused parts or gaps G12D): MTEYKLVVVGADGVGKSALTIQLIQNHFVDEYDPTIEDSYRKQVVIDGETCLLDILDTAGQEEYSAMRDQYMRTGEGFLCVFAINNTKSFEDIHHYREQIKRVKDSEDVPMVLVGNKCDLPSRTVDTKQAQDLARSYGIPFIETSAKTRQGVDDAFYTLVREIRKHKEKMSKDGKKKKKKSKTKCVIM
Background: TR-FRET usually uses a lanthanide donor and a delayed reading to cut background.

The test system of test [2] is phosphorylation level of ERK1/2 in ASPC-1 human pancreatic cancer cells. Description: pERK cell level assay (PHOSPHO-ERK1/2 HTRF kit). The format is cell-based. To be noted: Aspc-1 cells, 4 hours incubation. The method, then:
In this experiment, the phosphorylation level of ERK1/2 in AGS human gastric cancer cells or ASPC-1 human pancreatic cancer cells was detected using PHOSPHO-ERK1/2 (THR202/TYR 204) (Cisibo, 64ERKPEH) kit, and the inhibitory effect of the compounds on KRAS G12D was investigated based on the phosphorylation level of ERK1/2.
On day 1, the density of AGS cell (ATCC) suspension was adjusted to 2.1×10^5 cells/mL, then the suspension was spread in a 96-well plate at 95 μL/well so that there were 2×10^4 cells per well, and the cell culture plate was incubated in a 37° C., 5% CO2 incubator for overnight. On day 2, the compound was serially diluted with 100% dimethyl sulfoxide, and then further diluted with a complete culture medium (RPMI-1640+10% FBS+1% PS) to make a working solution of the compound, which was added to a 96-well cell culture plate at 5 μL/well, and incubated in a 37° C., 5% CO2 incubator for 4 hours. After the incubation was completed, the culture medium was discarded, then 1× lysis buffer was added thereto at 50 μL/well, and the plate was shaken at room temperature for 30 minutes. 16 μL of lysis buffer was added to a white 384-well shallow well plate, then 4 μL of pre-formulated antibody mixture was added thereto, and the plate was sealed with microplate sealer and incubated at room temperature for overnight. On day 3, detection was performed on a TECAN M1000 Pro microplate reader using the HTRF setting, and the IC50 value of the compound was calculated.

Test [3] concerns ASPC-1 human pancreatic cancer cells. Description: Cell proliferation assay (Cell Titer-Glo), ASPC-1. The format is cell-based. The method, then:
(§1) On day 1, AGS human gastric cancer cells, ASPC-1 human pancreatic cancer cells, or GP2D human colon cancer cells (Nanjing Cobioer Biosciences Co. Ltd.) in the logarithmic growth phase were taken, digested with an appropriate amount of trypsin, formulated into a single cell suspension using RPMI 1640 (Gibco) medium containing 10% fetal bovine serum and 1% penicillin-streptomycin, counted to adjust the cell density, inoculated in a 96-well plate at 95 μL/well so that there were 3000 cells per well, and then the cell culture plate was incubated in a 37° C., 5% CO2 incubator for overnight. On day 2, a 10 mM concentrated stock solution of KRAS G12D inhibitor was 3-fold serially diluted with dimethyl sulfoxide solution, and then diluted with AGS complete culture medium to make a working solution, which was added to a cell culture plate at 5 μL/well so that the compound had the highest concentration of 10 μM and the lowest concentration of 0.0015 μM, and the control group was 0.5% dimethyl sulfoxide. The cell culture plate was briefly centrifuged and then incubated in a CO2 incubator for 72 hours. On day 5, the cell culture plate was taken out, added with Cell Titer-Glo (Promega) detection reagent in each well, incubated in the dark for 10 minutes, and then luminescence was detected using a microplate reader (Tecan, Infinite M1000 Pro). Data were analyzed using Graphpad software, and curve fitting was performed with four-parameter equation and the IC50 value of the inhibitor was calculated.
On the technique in general: ATP-based viability assays read luminescence as a measure of living cells.

Test [4] has as its system GP2D human colon cancer cells. The test is described as follows: Cell proliferation assay (Cell Titer-Glo), GP2D. The format is cell-based. As to conditions: 72 hours. On the procedure:
as §1

Test [5] deals with GP2D human colon cancer cells subcutaneous xenograft tumor. The test is described as follows: In vivo pharmacodynamic experiment of subcutaneous xenograft tumor model in mice of GP2D human colon cancer cells. To be noted: BALB/c nude mice; for Tumor volume (11 days, mm^3): 11 days (at grouping). The method, then: Cell culture: GP2D human colon cancer cells were maintained in monolayer culture in DMEM culture medium containing 10% fetal bovine serum in a constant temperature incubator containing 5% CO2 at 37° C. Tumor cells were passaged twice a week. Cells in the exponential growth phase were harvested and counted for inoculation.
Experimental animals: BALB/c nude mice, 6 to 8 weeks, 18 to 22 g, purchased from Jiangsu GemPharmatech Co. Ltd.
Experimental method: GP2D cell line ([…]) was inoculated subcutaneously on the right back of experimental mice. The inoculation volume of each mouse was 0.1 mL. The growth of the tumor was observed regularly. When the tumor grew to about 150 mm^3, the mice were randomly grouped according to the tumor size and body weight, and the drug was administrated according to the administration plan shown in Table 1. The body weight and tumor size were measured twice a week throughout the experiment.
tumor volume (mm^3)=0.5×(tumor long diameter×tumor short diameter^2). Tumor size calculation formula: […]
(In general: In xenograft studies the graft and the host belong to different species.)

[6] abbreviates: Homo sapiens, ASPC1, pERK1/2 (THR202/TYR204).
[7] abbreviates: Homo sapiens, ASPC1, Aspc-1, 72 hours.

SMILES strings stand for the structures.

For orientation: IC50 means the concentration that gives 50% inhibition. Regarding `Nc1nc2c(-c3c(Cl)c4c5c(nc(OC[C@@]67CCCN6C[C@H](F)C7)nc5c3F)N3C[C@H]5CC[C@H](N5)[C@H]3CO4)cccc2s1` (single isomer, unassigned) [Compound I-12-2], the concentration for half-maximal inhibition (IC50) worked out at 3.01 nM in test [1] and 8.23 nM in test [2] (setting [6]).

In the case of `[2H]C1([2H])CC[C@@]2(COc3nc4c5c(c(Cl)c(-c6cccc7sc(N)c(C#N)c67)c(F)c5n3)OC[C@@H]3[C@@H]5CC[C@H](CN43)N5)C[C@@H](F)CN12` (single isomer, unassigned) [Compound I-20-2], the results for the half-inhibitory concentration (IC50) in test [1] and in test [3] (setting [7]) were 1.89 nM and 6.49 nM, respectively.

Turning to `[2H]C([2H])(Oc1nc2c3c(c(Cl)c(-c4cccc5sc(N)c(C#N)c45)c(F)c3n1)OC[C@@H]1[C@@H]3CC[C@H](CN21)N3)[C@@]12CCCN1C[C@H](F)C2` (single isomer, unassigned) [Compound I-24-2], the values for the half-maximal inhibitory concentration (IC50) in test [1] and in test [3] (setting [7]) were 1.75 nM and 6.66 nM, respectively.

As to `[2H]C1([2H])CC[C@@]2(C([2H])([2H])Oc3nc4c5c(c(Cl)c(-c6cccc7sc(N)c(C#N)c67)c(F)c5n3)OC[C@@H]3[C@@H]5CC[C@H](CN43)N5)C[C@@H](F)CN12` (single isomer, unassigned) [Compound I-27-2], the IC50 amounted to 1.4 nM in test [1] and 0.133 nM in test [4] (Homo sapiens).

Regarding `N#Cc1c(N)sc2cccc(-c3c(Cl)c4c5c(nc(OC[C@@]67CCCN6C[C@H](F)C7)nc5c3F)N3C[C@H]5CC[C@H](N5)[C@H]3CO4)c12` [Compound I-7, 2-amino-4-((5aS,6S,9R)-3-chloro-1-fluoro-13-(((2R,7aS)-2-fluorohexahydro-1H-pyrrolizin-7a-yl)methoxy)-5a,6,7,8,9,10-hexahydro-5H-6,9-epiminoazepino[2′,1′:3,4][1,4]oxazepino[5,6,7-de]quinazolin-2-yl)benzo[b]thiophene-3-carbonitrile ditrifluoroacetate], the 50% inhibitory concentration (IC50) in test [1] came out at 6.59 nM; in test [3] (Aspc-1, 72 hours), 5.53 nM; in test [2] (pERK1/2 (THR202/TYR204)) it was 1.59 nM.

On to `N#Cc1c(N)sc2c(F)ccc(-c3c(Cl)c4c5c(nc(OC[C@@]67CCCN6C[C@H](F)C7)nc5c3F)N3C[C@H]5CC[C@H](N5)[C@H]3CO4)c12` [Compound I-11, 2-amino-4-((5aS,6S,9R)-3-chloro-1-fluoro-13-(((2R,7aS)-2-fluorohexahydro-1H-pyrrolizin-7a-yl)methoxy)-5a,6,7,8,9,10-hexahydro-5H-6,9-epiminoazepino[2′,1′:3,4][1,4]oxazepino[5,6,7-de]quinazolin-2-yl)-7-fluorobenzo[b]thiophene-3-carbonitrile], for which the half-maximal inhibitory concentration (IC50) in test [1] was 11.2 nM; in test [3] (setting [7]), 12.6 nM; in test [4] (Homo sapiens), 0.336 nM; in test [2] (setting [6]), 1.01 nM.

Regarding `N#Cc1c(N)sc2ccc(F)c(-c3c(Cl)c4c5c(nc(OC[C@@]67CCCN6C[C@H](F)C7)nc5c3F)N3C[C@H]5CC[C@H](N5)[C@H]3CO4)c12` [Compound I-14, 2-amino-4-((5aS,6S,9R)-3-chloro-1-fluoro-13-(((2R,7aS)-2-fluorohexahydro-1H-pyrrolizin-7a-yl)methoxy)-5a,6,7,8,9,10-hexahydro-5H-6,9-epiminoazepino[2′,1′:3,4][1,4]oxazepino[5,6,7-de]quinazolin-2-yl)-5-fluorobenzo[b]thiophene-3-carbonitrile ditrifluoroacetate], the IC50 is 8.52 nM in test [1]; 6.76 nM in test [3] (Aspc-1, 72 hours); 0.124 nM in test [4]; 1.29 nM in test [2] (pERK1/2 (THR202/TYR204)).

For the compound `Cc1ccc2sc(N)c(C#N)c2c1-c1c(Cl)c2c3c(nc(OC[C@@]45CCCN4C[C@H](F)C5)nc3c1F)N1C[C@H]3CC[C@H](N3)[C@H]1CO2` [Compound I-21, 2-amino-4-((5aS,6S,9R)-3-chloro-1-fluoro-13-(1-((2R,7aS)-2-fluorohexahydro-1H-pyrrolizin-7a-yl)methoxy)-5a,6,7,8,9,10-hexahydro-5H-6,9-epiminoazepino[2′,1′:3,4][1,4]oxazepino[5,6,7-de]quinazolin-2-yl)-5-methylbenzo[b]thiophene-3-carbonitrile ditrifluoroacetate], the concentration for half-maximal inhibition (IC50) came to 9.76 nM in test [1] and 16.9 nM in test [3] (setting [7]).

For `N#Cc1c(N)sc2c1C(c1c(Cl)c3c4c(nc(OC[C@@]56CCCN5C[C@H](F)C6)nc4c1F)N1C[C@H]4CC[C@H](N4)[C@H]1CO3)=CCC2` [Compound I-25, 2-amino-4-((5aS,6S,9R)-3-chloro-1-fluoro-13-(((2R,7aS)-2-fluorohexahydro-1H-pyrrolizin-7a-yl)methoxy)-5a,6,7,8,9,10-hexahydro-5H-6,9-epiminoazepino[2′,1′:3,4][1,4]oxazepino[5,6,7-de]quinazolin-2-yl)-6,7-dihydrobenzo[b]thiophene-3-carbonitrile ditrifluoroacetate], the IC50 amounted to 12 nM in test [1] and 25.8 nM in test [3] (setting [7]).

As to `C#Cc1c(F)ccc2cc(O)cc(-c3ncc4c(N5CC6CCC(C5)N6)nc(OC[C@@]56CCCN5C[C@H](F)C6)nc4c3F)c12` [Ref. A, MRTX1133, reference compound], in test [5] (3 mg/kg i.p. twice a day), the “Tumor volume (11 days, mm^3)” value was determined as 139.25 ± 17.31 mm^3; the “Tumor volume (21 days, mm^3)” value came to 137.35 ± 18.79 mm^3; the “T/C (%)” value was determined as 30.3%; the “Tumor regression rate (%)” value is −1.4%. In test [5] (10 mg/kg i.p. twice a day), the “Tumor volume (11 days, mm^3)” value is 139.90 ± 20.43 mm^3; the “Tumor volume (21 days, mm^3)” value amounted to 79.77 ± 13.97 mm^3; the “T/C (%)” value is reported as 17.6%; the “Tumor regression rate (%)” value was −43.0%.
